Test results from patent publication US12209143B2, “Versatile peptide and protein macrocyclization and multimerization with diels-alder cycloadditions” (The University of Chicago, priority 2019, dated 2025).
Like-named read-outs stand apart in the source and are kept apart here.

Experiments:
chymotrypsin = molecular target: T1, chymotrypsin (Bos taurus, UniProt P00766); assay: In vitro chymotrypsin resistance assay; assay type: in vitro ADME; settings: 0.5 μg/mL chymotrypsin, 37° C.
T1 construct: purchased Thermo Pierce
Experimental: (§1) DAC protease stability assays. DAC peptide protease degradation kinetics were determined with Thermo Pierce™ MS-Grade Trypsin or Chymotrypsin Protease in PBS or TBS with 5 mM DTT and 2 mM CaCl2. Protease (1 eq) was added to buffer for a final assay concentration of 10 μg/mL trypsin or 0.5 μg/mL chymotrypsin. Each respective reaction mixture was then added to either 1 wt and 1a (2000 eq) or 4 wt and 4a (10,000 eq). Samples were then incubated at 37° C., 1,000 rpm. 5 min, 10 min, 30 min, 2 hr, and 4 hr time points were quenched in an equal volume of 2% TFA/H2O on ice. After 5 min, samples were centrifuged for 2 min at 17,000 rcf to precipitate quenched trypsin. Supernatant solutions were then analyzed and intact peptide quantified by LC-MS or Q-TOF.

ERα = molecular target: T2, ERα (Homo sapiens, UniProt P03372); assay: Competitive fluorescence polarization (FP) binding assay of DAC-SRC2 peptides
T2 construct: Wildtype and Y537S 6×His-TEV-ERα (residues 300-550) in pET21a(+) was expressed in E. coli BL21(DE3); 6×His-TEV (N, cleaved yes); made in house; host or cells: E. coli BL21(DE3)
T2 sequence (P03372 300-550): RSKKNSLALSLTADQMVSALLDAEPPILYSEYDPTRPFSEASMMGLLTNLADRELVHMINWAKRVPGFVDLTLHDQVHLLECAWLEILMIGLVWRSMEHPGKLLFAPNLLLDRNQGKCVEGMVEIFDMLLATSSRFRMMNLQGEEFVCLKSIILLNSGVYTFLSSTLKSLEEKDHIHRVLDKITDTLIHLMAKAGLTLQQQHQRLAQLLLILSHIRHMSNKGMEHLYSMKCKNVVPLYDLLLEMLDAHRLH
Experimental: Competitive fluorescence polarization (FP) assay. […] Plates were incubated at 4° C. for 1 hr, imaged using standard FP assay settings at 30° C., and data analyzed as previously described.

trypsin = molecular target: T3, trypsin (Sus scrofa, UniProt P00761); assay: In vitro trypsin resistance assay; assay type: in vitro ADME; settings: 10 μg/mL trypsin, 37° C.
T3 construct: purchased Thermo Pierce
Experimental: as §1

T3 sequence (P00761 9-231): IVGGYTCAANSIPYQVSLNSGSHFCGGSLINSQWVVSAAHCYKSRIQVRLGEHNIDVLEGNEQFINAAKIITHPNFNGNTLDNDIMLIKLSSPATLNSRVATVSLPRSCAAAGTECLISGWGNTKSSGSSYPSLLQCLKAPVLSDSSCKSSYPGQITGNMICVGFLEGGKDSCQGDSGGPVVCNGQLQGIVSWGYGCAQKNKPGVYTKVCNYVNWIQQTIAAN

With Ac-CAVPAVYK-NH2 [4 wt] the degradation by chymotrypsin (chymotrypsin) was “degraded more rapidly than 4a”.

Work on `CC[C@H](C)[C@H](NC(=O)[C@H](CCCCN)NC(=O)[C@H](Cc1c[nH]cn1)NC(C)=O)C(=O)N[C@@H](CC(C)C)C(=O)N[C@@H](Cc1c[nH]cn1)C(=O)N[C@H]1CCCCNC(=O)CN2C(=O)C3C4C=CC(C[C@@H](C(=O)N[C@@H](CO)C(N)=O)NC(=O)[C@H](CCC(N)=O)NC(=O)[C@H](CC(C)C)NC(=O)[C@H](CC(C)C)NC1=O)(O4)C3C2=O` (some centres unmarked) [7a] yielded a Ki (ERα; calculated from competitive FP assay, ERα, value (± s.e.m.)) of 0.21 µM, an IC50 (ERα; competing a fluorescein-linked SRC2 peptide off of ERα, read-out: IC50 (approximate)) of about 0.5 µM and an IC50 (ERα; competitive FP, wildtype ERα, fluorescein-labeled SRC peptide tracer, value (± s.e.m.), read-out: IC50) of 0.48 µM.

`CC(=O)N[C@H]1CSCC2C=CC(C)C3C(=O)N(CC(=O)NCCCC[C@@H](C(N)=O)NC(=O)[C@H](CC(=O)O)NC(=O)CNC(=O)[C@H](CCCNC(=N)N)NC1=O)C(=O)C23` (some centres unmarked) [1a, CHexRGDKMal] was tested, and the degradation by trypsin (trypsin) was “extended half-life”.
